Results as given in patent US10294246B2, “Substituted boronic acids and boronate esters as immunoproteasome inhibitors” (MERCK PATENT GMBH, priority 2014, dated 2019).

How the values were obtained:
[1] = biological target: human immunoproteasome (LMP7) (Homo sapiens (Human), UniProt P28062); experiment: Determination of LMP7 activity (fluorescence intensity assay, Suc-LLVY-AMC); format: biochemical; settings: for Selectivity LMP7 vs Beta5: LMP7 versus Beta5; for IC50: purified human immunoproteasome 0.25 nM, Suc-LLVY-AMC 40 μM
Method: Determination of LMP7 Activity:
Measurement of LMP7 inhibition is performed in 384 well format based on fluorescence intensity assay.
(§1) Purified human immunoproteasome (0.25 nM) and serial diluted compounds in DMSO (range of concentrations from 30 μM to […]) or controls are incubated for 20 minutes at 25° C. in assay buffer containing 50 mM Tris pH 7.4, 0.03% SDS, 1 mM EDTA and 1% DMSO. The reaction is initiated by the addition of the fluorogenic peptide substrate, Suc-LLVY-AMC (Bachem 1-1395), at a concentration of 40 μM. After 60 minutes of incubation at 37° C., fluorescence intensity is measured at λex=350 nm and λem=450 nm with a fluorescence reader (Perkin Elmer Envision reader or equivalent).

[2] = biological target: human constitutive proteasome (Beta5) (Homo sapiens (Human), UniProt P28074); experiment: Determination of Beta5 activity (fluorescence intensity assay, Suc-LLVY-AMC); format: biochemical; settings: purified human constitutive proteasome 1.25 nM, Suc-LLVY-AMC 40 μM
Method: Determination of Beta5 Activity:
Measurement of Beta5 inhibition is performed in 384 well format based on fluorescence intensity assay.
as §1, with “constitutive proteasome (1.25” for “immunoproteasome (0.25”

| Compound | Selectivity LMP7 vs Beta5 [1] | IC50 [1] [nM] | IC50 [2] [nM] |
| --- | --- | --- | --- |
| O=C(N[C@@H](Cc1coc2ccccc12)B(O)O)C(F)(F)c1ccccc1 [Compound No. 23, [(1R)-2-(benzofuran-3-yl)-1-[(2,2-difluoro-2-phenyl-acetyl)amino]-ethyl]boronic acid] | +++++ (Selectivity ≥ 100) | < 50 | 500 to 5000 |
| O=C(Cc1ccccc1C(F)(F)F)N[C@@H](Cc1coc2ccccc12)B(O)O [Compound No. 24, [(1R)-2-(benzofuran-3-yl)-1-[[2-[2-(trifluoromethyl)phenyl]acetyl]-amino]ethyl]boronic acid] | +++++ (Selectivity ≥ 100) | < 50 | 500 to 5000 |
| O=C(Cc1c(Cl)cccc1Cl)N[C@@H](Cc1coc2ccccc12)B(O)O [Compound No. 25, [(1R)-2-(benzofuran-3-yl)-1-[[2-(2,6-dichlorophenyl)acetyl]amino]-ethyl]boronic acid] | ++++ (70 ≤ Selectivity < 100) | < 50 | 500 to 5000 |
| CC(=O)Nc1ccc(CC(=O)N[C@@H](Cc2coc3ccccc23)B(O)O)cc1 [Compound No. 26, [(1R)-1-[[2-(4-acetamidophenyl)acetyl]amino]-2-(benzofuran-3-yl)ethyl]boronic acid] | +++++ (Selectivity ≥ 100) | – | 50 to 500 |
| COc1ccccc1CC(=O)N[C@@H](Cc1coc2ccccc12)B(O)O [Compound No. 27, [(1R)-2-(benzofuran-3-yl)-1-[[2-(2-methoxyphenyl)acetyl]amino]ethyl]-boronic acid] | ++++ (70 ≤ Selectivity < 100) | < 50 | 50 to 500 |
| O=C(Cc1ccccc1OC(F)(F)F)N[C@@H](Cc1coc2ccccc12)B(O)O [Compound No. 28, [(1R)-2-(benzofuran-3-yl)-1-[[2-[2-(trifluoromethoxy)phenyl]acetyl]-amino]ethyl]boronic acid] | +++++ (Selectivity ≥ 100) | < 50 | 500 to 5000 |
| Cc1ccc(C[C@H](NC(=O)Cc2ccccc2)B(O)O)c(C)c1 [Compound No. 29, [(1R)-2-(2,4-dimethylphenyl)-1-[(2-phenylacetyl)amino]ethyl]boronic acid] | +++++ (Selectivity ≥ 100) | 50 to 500 | > 5000 |
| COCc1ccc(CC(=O)N[C@@H](Cc2coc3ccccc23)B(O)O)cc1 [Compound No. 30, [(1R)-2-(benzofuran-3-yl)-1-[[2-[4-(methoxymethyl)phenyl]acetyl]-amino]ethyl]boronic acid] | ++++ (70 ≤ Selectivity < 100) | < 50 | 50 to 500 |
| O=C(Cc1cccc(OCCCO)c1)N[C@@H](Cc1coc2ccccc12)B(O)O [Compound No. 31, [(1R)-2-(benzofuran-3-yl)-1-[[2-[3-(3-hydroxypropoxy)phenyl]acetyl]-amino]ethyl]boronic acid] | ++++ (70 ≤ Selectivity < 100) | < 50 | 50 to 500 |
| CC(=O)Nc1cccc(CC(=O)N[C@@H](Cc2coc3ccccc23)B(O)O)c1 [Compound No. 32, [(1R)-1-[[2-(3-acetamidophenyl)acetyl]amino]-2-(benzofuran-3-yl)ethyl]boronic acid] | ++++ (70 ≤ Selectivity < 100) | – | 50 to 500 |
| CO[C@H](C(=O)N[C@@H](Cc1coc2ccccc12)B(O)O)c1ccccc1 [Compound No. 33, [(1R)-2-(benzofuran-3-yl)-1-[[(2S)-2-methoxy-2-phenyl-acetyl]amino]-ethyl]boronic acid] | +++++ (Selectivity ≥ 100) | – | 500 to 5000 |
| CO[C@@H](C(=O)N[C@@H](Cc1coc2ccccc12)B(O)O)c1ccccc1 [Compound No. 34, [(1R)-2-(benzofuran-3-yl)-1-[[(2R)-2-methoxy-2-phenyl-acetyl]amino]-ethyl]boronic acid] | +++++ (Selectivity ≥ 100) | < 50 | 500 to 5000 |
| Cc1ccc(C[C@H](NC(=O)Cc2c(C)cccc2C)B(O)O)c(C)c1 [Compound No. 35, [(1R)-2-(2,4-dimethylphenyl)-1-[[2-(2,6-dimethylphenyl)acetyl]amino]-ethyl]boronic acid] | ++ (10 ≤ Selectivity < 50) | 50 to 500 | 500 to 5000 |
| Cc1ccc(C[C@H](NC(=O)C2(c3ccccc3)CC2)B(O)O)c(C)c1 [Compound No. 36, [(1R)-2-(2,4-dimethylphenyl)-1-[(1-phenylcyclopropanecarbonyl)-amino]ethyl]boronic acid] | + (Selectivity < 10) | 500 to 5000 | > 5000 |
| C[C@H](C(=O)N[C@@H](Cc1coc2ccccc12)B(O)O)c1ccccc1 [Compound No. 37, [(1R)-2-(benzofuran-3-yl)-1-[[(2S)-2-phenylpropanoyl]amino]ethyl]-boronic acid] | +++++ (Selectivity ≥ 100) | – | 500 to 5000 |
| CC(=O)Nc1ccc(CC(=O)N[C@@H](Cc2ccc(C)cc2C)B(O)O)cc1 [Compound No. 38] | ++++ (70 ≤ Selectivity < 100) | < 50 | 500 to 5000 |
| O=C(Cc1ccc(OCCO)cc1)N[C@@H](Cc1coc2ccccc12)B(O)O [Compound No. 39, [(1R)-2-(benzofuran-3-yl)-1-[[2-[4-(2-hydroxyethoxy)phenyl]acetyl]-amino]ethyl]boronic acid] | +++++ (Selectivity ≥ 100) | < 50 | 50 to 500 |
| O=C(Cc1ccc(OCCCO)cc1)N[C@@H](Cc1coc2ccccc12)B(O)O [Compound No. 40, [(1R)-2-(benzofuran-3-yl)-1-[[2-[4-(3-hydroxypropoxy)phenyl]acetyl]-amino]ethyl]boronic acid] | +++++ (Selectivity ≥ 100) | < 50 | 50 to 500 |
| O=C(Cc1cccc(OCCO)c1)N[C@@H](Cc1coc2ccccc12)B(O)O [Compound No. 41, [(1R)-2-(benzofuran-3-yl)-1-[[2-[3-(2-hydroxyethoxy)phenyl]acetyl]-amino]ethyl]boronic acid] | +++++ (Selectivity ≥ 100) | < 50 | 50 to 500 |
| COc1cccc(OC)c1CC(=O)N[C@@H](Cc1ccc(C)cc1C)B(O)O [Compound No. 42, [(1R)-1-[[2-(2,6-dimethoxyphenyl)acetyl]amino]-2-(2,4-dimethylphenyl)ethyl]boronic acid] | ++ (10 ≤ Selectivity < 50) | 50 to 500 | > 5000 |
| Cc1ccc(C[C@H](NC(=O)Cc2ccc(N3CCCC3=O)cc2)B(O)O)c(C)c1 [Compound No. 43, [(1R)-2-(2,4-dimethylphenyl)-1-[[2-[4-(2-oxopyrrolidin-1-yl)phenyl]-acetyl]amino]ethyl]boronic acid] | +++++ (Selectivity ≥ 100) | < 50 | 500 to 5000 |
| Cc1ccc(C[C@H](NC(=O)Cc2ccc(N(C)C)cc2)B(O)O)c(C)c1 [Compound No. 44, [(1R)-1-[[2-(4-dimethylaminophenyl)acetyl]amino]-2-(2,4-dimethylphenyl)ethyl]boronic acid] | +++++ (Selectivity ≥ 100) | < 50 | > 5000 |
| C[C@@H](C(=O)N[C@@H](Cc1coc2ccccc12)B(O)O)c1ccccc1 [Compound No. 45, [(1R)-2-(benzofuran-3-yl)-1-[[(2R)-2-phenylpropanoyl]amino]ethyl]-boronic acid] | +++ (50 ≤ Selectivity < 70) | < 50 | 500 to 5000 |
| Cc1ccc(C[C@H](NC(=O)Cc2ccc(NS(C)(=O)=O)cc2)B(O)O)c(C)c1 [Compound No. 46, [(1R)-2-(2,4-dimethylphenyl)-1-[[2-[4-(methanesulfonamido)phenyl]-acetyl]amino]ethyl]boronic acid] | ++++ (70 ≤ Selectivity < 100) | 50 to 500 | > 5000 |
| COCC(=O)Nc1ccc(CC(=O)N[C@@H](Cc2ccc(C)cc2C)B(O)O)cc1 [Compound No. 47, [(1R)-2-(2,4-dimethylphenyl)-1-[[2-[4-[(2-methoxyacetyl)amino]-phenyl]acetyl]amino]ethyl]boronic acid] | +++++ (Selectivity ≥ 100) | 50 to 500 | > 5000 |
| COCc1ccccc1CC(=O)N[C@@H](Cc1coc2ccccc12)B(O)O [Compound No. 48, [(1R)-2-(benzofuran-3-yl)-1-[[2-[2-(methoxymethyl)phenyl]acetyl]-amino]ethyl]boronic acid] | +++++ (Selectivity ≥ 100) | < 50 | 500 to 5000 |
| COCc1cccc(CC(=O)N[C@@H](Cc2coc3ccccc23)B(O)O)c1 [Compound No. 49, [(1R)-2-(benzofuran-3-yl)-1-[[2-[3-(methoxymethyl)phenyl]acetyl]-amino]ethyl]boronic acid] | +++++ (Selectivity ≥ 100) | < 50 | 50 to 500 |
